Results taken from PubChem BioAssay AID2060884 (Molecular Pharmacology Branch, DTP, NCI, 2025).

Test system: NCI-H929 complex spheroids, viability % test/control
Assay: Anticancer human tumor NCI-H929 cell line growth inhibition [RAS];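 further: compound exposure lasted seven days before viability was read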;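 on viability, T/C: 100% = DMSO vehicle control viability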
Settings: for IC50: curve of first compound; for viability, T/C: stronger effect = lower value
Method in brief: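 Agents were tested in combination matrices in half-log decrements from a top concentration at or near clinical Cmax (10 microM if undetermined). Targets were multi-cell spheroids of tumour lines plus HUVEC and MSC stromal cells.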

[1] = second compound 0.000949 µM, first compound 0.0316 µM
[2] = second compound 0.000949 µM, first compound 0.1 µM
[3] = second compound 0.000949 µM, first compound 0.316 µM
[4] = second compound 0.000949 µM, first compound 1 µM
[5] = second compound 0.000949 µM, first compound 3.16 µM
[6] = second compound 0.000949 µM, first compound 10 µM
[7] = second compound 0.003 µM, first compound 0.0316 µM
[8] = second compound 0.003 µM, first compound 0.1 µM
[9] = second compound 0.003 µM, first compound 0.316 µM
[10] = second compound 0.003 µM, first compound 1 µM
[11] = second compound 0.003 µM, first compound 3.16 µM
[12] = second compound 0.003 µM, first compound 10 µM
[13] = second compound 0.00949 µM, first compound 0.0316 µM
[14] = second compound 0.00949 µM, first compound 0.1 µM
[15] = second compound 0.00949 µM, first compound 0.316 µM
[16] = second compound 0.00949 µM, first compound 1 µM
[17] = second compound 0.00949 µM, first compound 3.16 µM
[18] = second compound 0.00949 µM, first compound 10 µM
[19] = second compound 0.03 µM, first compound 0.0316 µM
[20] = second compound 0.03 µM, first compound 0.1 µM
[21] = second compound 0.03 µM, first compound 0.316 µM
[22] = second compound 0.03 µM, first compound 1 µM
[23] = second compound 0.03 µM, first compound 3.16 µM
[24] = second compound 0.03 µM, first compound 10 µM
[25] = second compound 0.0949 µM, first compound 0.0316 µM
[26] = second compound 0.0949 µM, first compound 0.1 µM
[27] = second compound 0.0949 µM, first compound 0.316 µM
[28] = second compound 0.0949 µM, first compound 1 µM
[29] = second compound 0.0949 µM, first compound 3.16 µM
[30] = second compound 0.0949 µM, first compound 10 µM
[31] = second compound 0.3 µM, first compound 0.0316 µM
[32] = second compound 0.3 µM, first compound 0.1 µM
[33] = second compound 0.3 µM, first compound 0.316 µM
[34] = second compound 0.3 µM, first compound 1 µM
[35] = second compound 0.3 µM, first compound 3.16 µM
[36] = second compound 0.3 µM, first compound 10 µM

CCc1c2c(nc3ccc(O)cc13)-c1cc3c(c(=O)n1C2)COC(=O)[C@]3(O)CC + C#Cc1c(F)ccc2cc(O)cc(-c3ncc4c(N5CC6CCC(C5)N6)nc(OCC56CCCN5CC(F)C6)nc4c3F)c12
IC50 (second compound 0.0316 µM): 1.88 nM | IC50 (second compound 0.1 µM): 1.97 nM | IC50 (second compound 0.316 µM): 1.83 nM | IC50 (second compound 1 µM): 1.85 nM | IC50 (second compound 3.16 µM): 1.83 nM | IC50 (second compound 10 µM): 1.7 nM | viability, T/C (second compound 0.0316 µM, first compound 0.000949 µM): 107% | viability, T/C (second compound 0.0316 µM, first compound 0.003 µM): 11.1% | viability, T/C (second compound 0.0316 µM, first compound 0.00949 µM): 1.08% | viability, T/C (second compound 0.0316 µM, first compound 0.03 µM): 1.06% | viability, T/C (second compound 0.0316 µM, first compound 0.0949 µM): 2.09% | viability, T/C (second compound 0.0316 µM, first compound 0.3 µM): 1.3% | viability, T/C (second compound 0.1 µM, first compound 0.000949 µM): 103% | viability, T/C (second compound 0.1 µM, first compound 0.003 µM): 19% | viability, T/C (second compound 0.1 µM, first compound 0.00949 µM): 1.39% | viability, T/C (second compound 0.1 µM, first compound 0.03 µM): 3.06% | viability, T/C (second compound 0.1 µM, first compound 0.0949 µM): 2.48% | viability, T/C (second compound 0.1 µM, first compound 0.3 µM): 0.71% | viability, T/C (second compound 0.316 µM, first compound 0.000949 µM): 103% | viability, T/C (second compound 0.316 µM, first compound 0.003 µM): 10.5% | viability, T/C (second compound 0.316 µM, first compound 0.00949 µM): 1.36% | viability, T/C (second compound 0.316 µM, first compound 0.03 µM): 2.4% | viability, T/C (second compound 0.316 µM, first compound 0.0949 µM): 1.35% | viability, T/C (second compound 0.316 µM, first compound 0.3 µM): 1.02% | viability, T/C (second compound 1 µM, first compound 0.000949 µM): 104% | viability, T/C (second compound 1 µM, first compound 0.003 µM): 11.1% | viability, T/C (second compound 1 µM, first compound 0.00949 µM): 1.18% | viability, T/C (second compound 1 µM, first compound 0.03 µM): 1.37% | viability, T/C (second compound 1 µM, first compound 0.0949 µM): 0.94% | viability, T/C (second compound 1 µM, first compound 0.3 µM): 0.76% | viability, T/C (second compound 3.16 µM, first compound 0.000949 µM): 104% | viability, T/C (second compound 3.16 µM, first compound 0.003 µM): 9.19% | viability, T/C (second compound 3.16 µM, first compound 0.00949 µM): 2.65% | viability, T/C (second compound 3.16 µM, first compound 0.03 µM): 1.69% | viability, T/C (second compound 3.16 µM, first compound 0.0949 µM): 1.26% | viability, T/C (second compound 3.16 µM, first compound 0.3 µM): 0.49% | viability, T/C (second compound 10 µM, first compound 0.000949 µM): 92% | viability, T/C (second compound 10 µM, first compound 0.003 µM): 9.27% | viability, T/C (second compound 10 µM, first compound 0.00949 µM): 1.7% | viability, T/C (second compound 10 µM, first compound 0.03 µM): 1.05% | viability, T/C (second compound 10 µM, first compound 0.0949 µM): 1.19% | viability, T/C (second compound 10 µM, first compound 0.3 µM): 0.41%

CC(C)NCC(C(=O)N1CCN(c2ncnc3c2C(C)CC3O)CC1)c1ccc(Cl)cc1 (stereo unspecified) + CCn1c(-c2cc(N3CCN(C)CC3)cnc2C(C)OC)c2c3cc(ccc31)-c1csc(n1)CC(NC(=O)C1CC1C)C(=O)N1CCCC(N1)C(=O)OCC(C)(C)C2
IC50 (second compound 0.000949 µM): 1720 nM | IC50 (second compound 0.003 µM): 1690 nM | IC50 (second compound 0.00949 µM): 652 nM | IC50 (second compound 0.03 µM): < 31.6 nM | IC50 (second compound 0.0949 µM): < 31.6 nM | IC50 (second compound 0.3 µM): < 31.6 nM | viability, T/C [1]: 102% | viability, T/C [2]: 97.5% | viability, T/C [3]: 105% | viability, T/C [4]: 80.3% | viability, T/C [5]: 16% | viability, T/C [6]: 2.39% | viability, T/C [7]: 97.7% | viability, T/C [8]: 102% | viability, T/C [9]: 106% | viability, T/C [10]: 82.3% | viability, T/C [11]: 11.1% | viability, T/C [12]: 1.27% | viability, T/C [13]: 109% | viability, T/C [14]: 115% | viability, T/C [15]: 109% | viability, T/C [16]: 15.4% | viability, T/C [17]: 1.11% | viability, T/C [18]: 0.51% | viability, T/C [19]: 42.5% | viability, T/C [20]: 23.2% | viability, T/C [21]: 5.92% | viability, T/C [22]: 1.07% | viability, T/C [23]: 0.47% | viability, T/C [24]: 0.39% | viability, T/C [25]: 5.19% | viability, T/C [26]: 2.73% | viability, T/C [27]: 0.72% | viability, T/C [28]: 0.7% | viability, T/C [29]: 0.37% | viability, T/C [30]: 0.17% | viability, T/C [31]: 2.88% | viability, T/C [32]: 1.14% | viability, T/C [33]: 0.58% | viability, T/C [34]: 0.57% | viability, T/C [35]: 0.75% | viability, T/C [36]: 0.24%

CC1(O)CCCC1n1c(=O)c(C(F)F)cc2cnc(NC3CCN(S(C)(=O)=O)CC3)nc21 (stereo unspecified) + CCn1c(-c2cccnc2C(C)OC)c2c3cc(ccc31)N1CCOC(CC(NC(=O)C(C(C)C)N(C)C(=O)C3(F)CCN(C(=O)C#CC(C)(C)N(C)C)CC3)C(=O)N3CCCC(N3)C(=O)OCC(C)(C)C2)C1
IC50 (second compound 0.000949 µM): 75.4 nM | IC50 (second compound 0.003 µM): 76.5 nM | IC50 (second compound 0.00949 µM): 74.3 nM | IC50 (second compound 0.03 µM): 71 nM | IC50 (second compound 0.0949 µM): 67.7 nM | IC50 (second compound 0.3 µM): 62.4 nM | viability, T/C [1]: 104% | viability, T/C [2]: 32.6% | viability, T/C [3]: 1.35% | viability, T/C [4]: 2.44% | viability, T/C [5]: 1.45% | viability, T/C [6]: 0.12% | viability, T/C [7]: 100% | viability, T/C [8]: 34.8% | viability, T/C [9]: 1.28% | viability, T/C [10]: 2.8% | viability, T/C [11]: 1.23% | viability, T/C [12]: 0.1% | viability, T/C [13]: 98.1% | viability, T/C [14]: 33.3% | viability, T/C [15]: 0.97% | viability, T/C [16]: 2.52% | viability, T/C [17]: 1.36% | viability, T/C [18]: 0.09% | viability, T/C [19]: 99.8% | viability, T/C [20]: 28.9% | viability, T/C [21]: 1.21% | viability, T/C [22]: 2.78% | viability, T/C [23]: 1.08% | viability, T/C [24]: 0.11% | viability, T/C [25]: 99.9% | viability, T/C [26]: 24.5% | viability, T/C [27]: 1.16% | viability, T/C [28]: 2.55% | viability, T/C [29]: 1.28% | viability, T/C [30]: 0.12% | viability, T/C [31]: 103% | viability, T/C [32]: 13.5% | viability, T/C [33]: 1.13% | viability, T/C [34]: 2.31% | viability, T/C [35]: 1.74% | viability, T/C [36]: 0.16%
